Experimental findings from patent US20250011311A1, “AMIDO HETEROAROMATIC COMPOUNDS” (AstraZeneca AB, priority 2022, published 2025) are described below.

The target of data set [1] is recombinant 17bHSD13 (N2-K300) (Homo sapiens (Human), UniProt Q7Z5P4). Kind of data set: In Vitro 17bHSD13 Enzyme Assay. In kind it is biochemical. To be noted: 80 nM 17bHSD13, 0.5 mM NAD, 20 μM Estradiol, 2.5 h; estradiol to estrone by LC-MS/MS. An outline of the steps:
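Human 17bHSD13 (N2-K300, 80 nM) with 0.5 mM NAD, 20 μM estradiol and varied compound in 50 mM Tris-Cl pH 7.4, 5 mM EDTA, 0.01% DDM. Estrone/(estrone+estradiol) ratio read by LC-MS/MS (APCI, positive MRM). Inhibition normalised to DMSO and a known-inhibitor control; IC50 from curve fit.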

Data set [2] concerns the target over expressed HSD17β13 in HEK293S cells (Homo sapiens (Human), UniProt Q7Z5P4). Kind of data set: In Vitro 17bHSD13 Cell Assay. It is filed as cell-based. To be noted: HEK293S cells over expressing HSD17β13; estradiol to estrone conversion, 18 h, LC-MS/MS; read-out: 17bHSD1713 Cell assay IC50. An outline of the steps:
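HEK293S cells overexpressing HSD17β13 convert estradiol to estrone; product read by LC-MS/MS (APCI, positive MRM) as AUC ratio estrone/(estrone+estradiol). Effect normalised between DMSO and maximal inhibition by a known inhibitor control; IC50 from curve fit.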

For data set [3], the target named is over expressed HSD17β9 in HEK293S cells (Homo sapiens (Human), UniProt Q92781). Kind of data set: In Vitro 17bHSD9 Cell Assay. It is filed as cell-based. To be noted: HEK293S cells over expressing HSD17β9; retinol to retinal conversion, 18 h, LC-MS/MS; read-out: 17bHSD9 Cell assay IC50. The method in brief:
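HEK293S cells overexpressing HSD17β9 were plated at 10K cells/well in DMEM + 10% FBS and cultured 18 h. Retinol-to-retinal conversion in media was quantified by LC-MS/MS (MRM) as retinal/(retinal + retinol). IC50 was fitted after normalisation to DMSO and full inhibition by a reference inhibitor.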

Data set [4] deals with human hepatocytes. Kind of data set: Assay A: Metabolic Stability in Human Hepatocytes. It is filed as in vitro ADME. The conditions noted are these: cryopreserved human hepatocytes, 10^6 viable cells/mL, 1 μM compound, 37° C. How it is done: Assay A: Metabolic Stability in Human Hepatocytes
Hepatocyte metabolic stability was determined in accordance with the method described by Jacobson et al., An optimized automated assay for determination of metabolic stability using hepatocytes: assay validation, variance component analysis, and in vivo relevance. Assay Drug Dev Technol 2007, 5 (3), 403-415. DOI: 10.1089/adt.2007.059, which is incorporated herein by reference. Cryopreserved hepatocytes at a concentration of 10^6 viable cells/mL were used. After thawing, hepatocytes were incubated for 10 min to warm to 37° C. and test compounds, dissolved in acetonitrile, were added to give a final concentration of 1 μM. At 0.5, 5, 15, 30, 45, 60, 80, 100 and 120 min, the incubation system was mixed and 20 μL aliquots were transferred at each time point to wells in a separate plate filled with 80 μL MeCN to stop the reaction. The quenching plate was then vortexed followed by centrifugation, and supernatants were analyzed by LC-MS/MS. Peak areas were determined from extracted ion chromatograms, and the in vitro intrinsic clearance (in vitro CLint, in μL/min/10^6 cells) of parent compound was calculated from the slope in the regression analysis of the natural logarithm of parent concentration vs time curve.

In data set [5] the target is CYP2C9 (Homo sapiens (Human), UniProt P11712). As to the kind of experiment: Assay B: Cytochrome P450 Inhibition 2C9.
Sequence of CYP2C9 (P11712 whole entry): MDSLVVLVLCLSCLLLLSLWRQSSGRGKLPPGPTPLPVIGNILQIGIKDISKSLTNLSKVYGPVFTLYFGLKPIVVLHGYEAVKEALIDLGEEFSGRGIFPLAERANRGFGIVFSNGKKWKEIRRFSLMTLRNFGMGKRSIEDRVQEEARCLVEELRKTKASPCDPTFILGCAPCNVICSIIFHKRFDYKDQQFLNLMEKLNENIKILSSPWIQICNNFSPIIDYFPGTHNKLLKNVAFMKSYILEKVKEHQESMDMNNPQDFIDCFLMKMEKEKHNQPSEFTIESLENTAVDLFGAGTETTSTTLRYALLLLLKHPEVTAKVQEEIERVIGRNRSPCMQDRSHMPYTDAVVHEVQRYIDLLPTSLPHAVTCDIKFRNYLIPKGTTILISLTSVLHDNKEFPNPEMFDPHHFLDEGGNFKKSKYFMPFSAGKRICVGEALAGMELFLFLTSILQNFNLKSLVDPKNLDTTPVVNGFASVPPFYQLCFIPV

Sequence of over expressed HSD17β9 in HEK293S cells (Q92781 whole entry): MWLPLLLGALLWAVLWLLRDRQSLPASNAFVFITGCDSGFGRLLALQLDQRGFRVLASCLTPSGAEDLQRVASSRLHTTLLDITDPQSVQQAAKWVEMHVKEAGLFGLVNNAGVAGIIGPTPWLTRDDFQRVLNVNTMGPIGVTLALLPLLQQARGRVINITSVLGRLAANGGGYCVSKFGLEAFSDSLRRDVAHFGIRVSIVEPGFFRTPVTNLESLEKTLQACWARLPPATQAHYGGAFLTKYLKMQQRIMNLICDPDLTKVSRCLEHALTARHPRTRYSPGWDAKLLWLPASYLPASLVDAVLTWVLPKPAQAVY
Sequence of over expressed HSD17β13 in HEK293S cells (Q7Z5P4 20-300): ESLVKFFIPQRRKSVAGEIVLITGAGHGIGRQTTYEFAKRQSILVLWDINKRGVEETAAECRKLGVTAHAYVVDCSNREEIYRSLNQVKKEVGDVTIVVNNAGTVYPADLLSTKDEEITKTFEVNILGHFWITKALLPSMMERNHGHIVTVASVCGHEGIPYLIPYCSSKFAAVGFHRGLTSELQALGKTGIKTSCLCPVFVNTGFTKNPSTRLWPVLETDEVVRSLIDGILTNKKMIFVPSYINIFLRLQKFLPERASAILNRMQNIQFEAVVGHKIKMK
Sequence of recombinant 17bHSD13 (N2-K300) (Q7Z5P4 2-300): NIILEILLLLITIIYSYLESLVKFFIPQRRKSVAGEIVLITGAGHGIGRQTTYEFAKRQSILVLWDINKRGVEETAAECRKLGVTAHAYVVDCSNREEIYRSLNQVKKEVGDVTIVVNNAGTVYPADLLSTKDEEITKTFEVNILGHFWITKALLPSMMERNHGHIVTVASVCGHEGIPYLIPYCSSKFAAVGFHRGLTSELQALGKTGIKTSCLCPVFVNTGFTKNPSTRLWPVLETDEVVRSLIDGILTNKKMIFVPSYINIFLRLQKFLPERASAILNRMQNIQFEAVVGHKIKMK

As a reminder, the IC50 is the midpoint of a concentration-inhibition curve. Regarding `N#Cc1ccccc1N1CCN(C(=O)c2noc(-c3cc(F)c(F)c(O)c3F)n2)CC1` [Example 82, 2-(4-(5-(2,4,5-Trifluoro-3-hydroxyphenyl)-1,2,4-oxadiazole-3-carbonyl)piperazin-1-yl)benzonitrile], the 50% inhibitory concentration (IC50) in data set [1] was 62 nM; in data set [2], 450 nM; in data set [3] it was above 50000 nM; in data set [5], 4300 nM. Also, the “Assay A: Human Heps Met Clint GMean CLint (μl/min/1E6)” value in data set [4] is 15.4 μl/min/1E6.

In the case of `Cn1nc(C2CC2)c2c1CCN(C(=O)c1noc(-c3cc(F)c(F)c(O)c3F)c1C#N)C2` [Example 20, 3-(3-Cyclopropyl-1-methyl-4,5,6,7-tetrahydro-1H-pyrazolo[4,3-c]pyridine-5-carbonyl)-5-(2,4,5-trifluoro-3-hydroxyphenyl)isoxazole-4-carbonitrile], the 50% inhibitory concentration (IC50) in data set [1] is 63 nM; in data set [2] it was 2400 nM; in data set [3], 29400 nM; in data set [5], 400 nM. The “Assay A: Human Heps Met Clint GMean CLint (μl/min/1E6)” value in data set [4] stood at 16.8 μl/min/1E6.

Take `N#Cc1c(C(=O)N2CC[C@@H](c3ccc(Cl)cc3)C2)noc1-c1cc(F)c(F)c(O)c1F` [Example 21, (S)-3-(3-(4-Chlorophenyl)pyrrolidine-1-carbonyl)-5-(2,4,5-trifluoro-3-hydroxyphenyl)isoxazole-4-carbonitrile]: the IC50 was determined as 32 nM in data set [1], 660 nM in data set [2], 22600 nM in data set [3] and 200 nM in data set [5]. In addition, the “Assay A: Human Heps Met Clint GMean CLint (μl/min/1E6)” value in data set [4] worked out at 13.3 μl/min/1E6.

As for `N#Cc1ccc2c(c1)CN(C(=O)c1noc(-c3cc(F)c(F)c(O)c3F)n1)C2` [Example 106, 2-(5-(2,4,5-Trifluoro-3-hydroxyphenyl)-1,2,4-oxadiazole-3-carbonyl)isoindoline-5-carbonitrile], the IC50 was 516 nM in data set [1], 1220 nM in data set [2], above 50000 nM in data set [3] and 5900 nM in data set [5]. For the same compound, the “Assay A: Human Heps Met Clint GMean CLint (μl/min/1E6)” value in data set [4] came to 16.1 μl/min/1E6.

On to `C[C@@H]1CN(C(=O)c2noc(-c3c(F)c(O)c(F)c(F)c3Br)n2)C[C@H](C)O1` [Example 124, (5-(2-Bromo-3,4,6-trifluoro-5-hydroxyphenyl)-1,2,4-oxadiazol-3-yl)((2R,6S)-2,6-dimethylmorpholino)methanone], for which the IC50 came to 42 nM in data set [1], 24100 nM in data set [3] and 27000 nM in data set [5]. Further, in data set [4], the “Assay A: Human Heps Met Clint GMean CLint (μl/min/1E6)” value is 11.1 μl/min/1E6.

As for `N#Cc1ccc(C2CN(C(=O)c3noc(-c4cc(F)c(F)c(O)c4F)n3)C2)cc1` [Example 59, 4-(1-(5-(2,4,5-Trifluoro-3-hydroxyphenyl)-1,2,4-oxadiazole-3-carbonyl)azetidin-3-yl)benzonitrile], the IC50 in data set [1] is 608 nM; in data set [2] it was 3470 nM; in data set [3], above 50000 nM; in data set [5], 13100 nM. The “Assay A: Human Heps Met Clint GMean CLint (μl/min/1E6)” value in data set [4] was determined as 10.2 μl/min/1E6.

Take `N#Cc1c(C(=O)N2CCN(c3ccc4nnc(C(F)(F)F)n4n3)CC2)noc1-c1cc(F)c(F)c(O)c1F` [Example 17, 5-(2,4,5-Trifluoro-3-hydroxyphenyl)-3-(4-(3-(trifluoromethyl)-[1,2,4]triazolo[4,3-b]pyridazin-6-yl)piperazine-1-carbonyl)isoxazole-4-carbonitrile]: the IC50 in data set [1] amounted to 525 nM; in data set [2], 3100 nM; in data set [5] it was 200 nM. In data set [4], the “Assay A: Human Heps Met Clint GMean CLint (μl/min/1E6)” value came out at 6.5 μl/min/1E6.
